This note sets out measurements from patent publication US20240174647A1 (NEURON23, INC., priority 2022, published 2024).

A value given as a limit tells only on which side of the number the result lay.

In the assay the target is wt human LRRK2, catalytic site (Homo sapiens (Human), UniProt Q5S007). Put plainly: TR-FRET LanthaScreen Tb Kinase Activity Assay (LRRK2 kinase inhibition). In kind it is biochemical. The settings on record: 2 nM wt human LRRK2, 400 nM fluorescein-ERM (LRRKtide) peptide, 38 μM ATP, 120 minutes at room temperature. Summed up:
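LanthaScreen TR-FRET with 2 nM wt human LRRK2 catalytic site, 400 nM fluorescein-ERM (LRRKtide) peptide and 38 µM ATP in Kinase Buffer A; 120 min at room temperature. Phosphorylation detected with EDTA and Tb-anti-pLRRKtide after 60 min; IC50 from emission ratios.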
In general terms: TR-FRET usually uses a lanthanide donor and a delayed reading to cut background.

Sequence of wt human LRRK2, catalytic site (Q5S007 1879-2138): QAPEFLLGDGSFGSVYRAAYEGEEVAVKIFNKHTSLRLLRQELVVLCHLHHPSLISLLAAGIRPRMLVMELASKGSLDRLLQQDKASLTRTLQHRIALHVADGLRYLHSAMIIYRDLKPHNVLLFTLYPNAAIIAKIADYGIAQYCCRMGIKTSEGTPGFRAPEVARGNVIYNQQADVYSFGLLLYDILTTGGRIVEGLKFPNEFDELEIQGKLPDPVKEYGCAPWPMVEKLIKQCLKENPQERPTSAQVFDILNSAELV

`CCNc1nc(Nc2cccc3c2cnn3CC(C)(C)O)nc2[nH]cc(Cl)c12` [Example 176, 1-[4-[[5-chloro-4-(ethylamino)-7H-pyrrolo[2,3-d]pyrimidin-2-yl]amino]indazol-1-yl]-2-methyl-propan-2-ol]: the IC50 was < 50 nM. Then `CS(=O)(=O)CCn1ncc2c(Nc3ncc(C(F)(F)F)c(NC4CC4)n3)ccc(F)c21` [Example 177, N^4-cyclopropyl-N^2-[7-fluoro-1-(2-methylsulfonylethyl)indazol-4-yl]-5-(trifluoromethyl)pyrimidine-2,4-diamine], with < 50 nM. With `CNc1nc(Nc2ccc3c4c2cnn4CCO3)ncc1C(F)(F)F` [Example 178, N^4-methyl-N^2-(9-oxa-1,2-diazatricyclo[6.3.1.04,12]dodeca-2,4,6,8(12)-tetraen-5-yl)-5-(trifluoromethyl)pyrimidine-2,4-diamine], the IC50 was < 50 nM. On to `FC(F)(F)c1cnc(Nc2ccc3c4c2cnn4CCO3)nc1NC1CC1` [Example 179, N^4-cyclopropyl-N^2-(2,3-dihydro-[1,4]oxazino[2,3,4-hi]indazol-7-yl)-5-(trifluoromethyl)pyrimidine-2,4-diamine], for which the IC50 was < 50 nM.

Regarding `CC(C)Nc1nc(Nc2ccc3c4c2cnn4CCO3)ncc1C(F)(F)F` [Example 180, N^4-isopropyl-N^2-(9-oxa-1,2-diazatricyclo[6.3.1.04,12]dodeca-2,4,6,8(12)-tetraen-5-yl)-5-(trifluoromethyl)pyrimidine-2,4-diamine], the half-inhibitory concentration (IC50) was < 50 nM. On to `CCNc1nc(Nc2ccc(F)c3c2cnn3CC(C)(C)O)nc2[nH]nc(Cl)c12` [Example 181, 1-(4-((3-chloro-4-(ethylamino)-1H-pyrazolo[3,4-d]pyrimidin-6-yl)amino)-7-fluoro-1H-indazol-1-yl)-2-methylpropan-2-ol], for which the IC50 was < 50 nM. Consider `Cc1n[nH]c2nc(Nc3cccc4c3cnn4CCS(C)(=O)=O)nc(NC3CC3)c12` [Example 182, N^4-cyclopropyl-3-methyl-N^6-[1-(2-methylsulfonylethyl)indazol-4-yl]-1H-pyrazolo[3,4-d]pyrimidine-4,6-diamine], for which the half-maximal inhibitory concentration (IC50) was < 50 nM. As to `CNc1nc(Nc2cccc3c2cnn3CC(C)(C)O)nc2[nH]nc(Cl)c12` [Example 183, 1-[4-[[3-chloro-4-(methylamino)-1H-pyrazolo [3,4-d]pyrimidin-6-yl]amino]indazol-1-yl]-2-methyl-propan-2-ol], the IC50 was < 50 nM. With `CNc1nc(Nc2cccc3c2cnn3CC(C)(C)O)nc2[nH]cnc12` [Example 184, 2-methyl-1-[4-[[6-(methylamino)-9H-purin-2-yl]amino]indazol-1-yl]propan-2-ol], the IC50 is < 50 nM. For the compound `CCNc1nc(Nc2cccc3c2cnn3CC(F)F)nc2[nH]nc(C)c12` [Example 185, N^6-(1-(2,2-difluoroethyl)-1H-indazol-4-yl)-N^4-ethyl-3-methyl-1H-pyrazolo[3,4-d]pyrimidine-4,6-diamine], the IC50 is < 50 nM.

As for `CCNc1nc(Nc2cccc3c2cnn3CCS(C)(=O)=O)ncc1C(F)(F)F` [Example 186, N^4-ethyl-N^2-[1-(2-methylsulfonylethyl)indazol-4-yl]-5-(trifluoromethyl) pyrimidine-2,4-diamine], the IC50 is < 50 nM. For `CS(=O)(=O)CCn1ncc2c(Nc3ncc(C(F)(F)F)c(NCC4CC4)n3)cccc21` [Example 187, N^4-(cyclopropylmethyl)-N^2-(1-(2-(methylsulfonyl)ethyl)-1H-indazol-4-yl)-5-(trifluoromethyl)pyrimidine-2,4-diamine], the IC50 was < 50 nM.

On to `CNc1nc(Nc2cccc3c2cnn3CCS(C)(=O)=O)ncc1C(F)(F)F` [Example 188, N^4-methyl-N^2-[1-(2-methylsulfonylethyl)indazol-4-yl]-5-(trifluoromethyl) pyrimidine-2,4-diamine], for which the IC50 was < 50 nM. For the compound `CC(C)(C#N)n1ncc2c(Nc3ncc(C(F)(F)F)c(NC4CC4)n3)ccnc21` [Example 189, 2-(4-((4-(cyclopropylamino)-5-(trifluoromethyl)pyrimidin-2-yl)amino)-1H-pyrazolo[3,4-b]pyridin-yl)-2-methylpropanenitrile], the IC50 is < 50 nM. Then `FC(F)(F)c1cnc(Nc2cccc3c2cnn3C2CC2)nc1NC1CC1` [Example 190, N^4-cyclopropyl-N^2-(1-cyclopropyl-1H-indazol-4-yl)-5-(trifluoromethyl) pyrimidine-2,4-diamine], with < 50 nM; and `CC1(Nc2nc(Nc3cccc4c3cnn4CCS(C)(=O)=O)ncc2C(F)(F)F)CC1` [Example 191, N^4-(1-methylcyclopropyl)-N^2-(1-(2-(methylsulfonyl)ethyl)-1H-indazol-4-yl)-5-(trifluoromethyl)pyrimidine-2,4-diamine], with < 50 nM. Regarding `CS(=O)(=O)CCn1ncc2c(Nc3ncc(C(F)F)c(NC4CC4)n3)cccc21` [Example 192, N^4-cyclopropyl-5-(difluoromethyl)-N^2-[1-(2-methylsulfonylethyl)indazol-4-yl]pyrimidine-2,4-diamine], the IC50 was < 50 nM. Turning to `FC(F)(F)c1cnc(Nc2cccc3c2cnn3CCN2CCOCC2)nc1NC1CC1` [Example 193, N^4-cyclopropyl-N^2-(1-(2-morpholinoethyl)-1H-indazol-4-yl)-5-(trifluoromethyl)pyrimidine-2,4-diamine], the IC50 is < 50 nM. To `CC(C)S(=O)(=O)CCn1ncc2c(Nc3ncc(C(F)(F)F)c(NC4CC4)n3)cccc21` [Example 194, N4-cyclopropyl-N^2-(1-(2-(isopropylsulfonyl)ethyl)-1H-indazol-4-yl)-5-(trifluoromethyl)pyrimidine-2,4-diamine] belongs < 50 nM; to `CC(C)(CS(C)(=O)=O)n1ncc2c(Nc3ncc(C(F)(F)F)c(NC4CC4)n3)cccc21` [Example 195, N^4-cyclopropyl-N^2-(1-(2-methyl-1-(methylsulfonyl)propan-2-yl)-1H-indazol-4-yl)-5-(trifluoromethyl)pyrimidine-2,4-diamine], < 50 nM. Turning to `CC(C)(C)n1ncc2c(Nc3ncc(C(F)(F)F)c(NC4CC4)n3)cccc21` [Example 196, N^2-(1-tert-butylindazol-4-yl)-N^4-cyclopropyl-5-(trifluoromethyl)pyrimidine-2,4-diamine], the 50% inhibitory concentration (IC50) is < 50 nM. In turn, `FC(F)(F)c1cnc(Nc2cccc3c2cnn3CC2COC2)nc1NC1CC1` [Example 197, N^4-cyclopropyl-N^2-(1-(oxetan-3-ylmethyl)-1H-indazol-4-yl)-5-(trifluoromethyl) pyrimidine-2,4-diamine] came in with an IC50 of 50 to 200 nM. Regarding `CS(=O)(=O)CCn1ncc2c(Nc3ncc(C(F)(F)F)c(N[C@H]4C[C@H]4F)n3)cccc21` [Example 198, N^4-((1S,2R)-2-fluorocyclopropyl)-N^2-(1-(2-(methylsulfonyl)ethyl)-1H-indazol-4-yl)-5-(trifluoromethyl)pyrimidine-2,4-diamine], the IC50 is < 50 nM. For the compound `CS(=O)(=O)CCn1ncc2c(Nc3ncc(C(F)(F)F)c(N[C@H]4C[C@@H]4F)n3)cccc21` [Example 199, N^4-((1S,2S)-2-fluorocyclopropyl)-N^2-(1-(2-(methylsulfonyl)ethyl)-1H-indazol-4-yl)-5-(trifluoromethyl)pyrimidine-2,4-diamine], the IC50 was < 50 nM.

In general, IC50 refers to the point on the concentration scale where inhibition reaches its midpoint. A high value points to weaker potency in that assay.
